Data reported in patent US12043601B2, “N-substituted-1H-1,2,4-triazole-3-carboxamides, analogues thereof, and methods of treatment using same” (THE REGENTS OF THE UNIVERSITY OF COLORADO, priority 2018, dated 2024).
Converted amounts (≈) assume the structure as drawn. “And” between values parts separate entries of the source, which are not always exact repeats. Identical values can stand only once. “Also recorded” adds a separate entry of the source. Like-named read-outs stand apart in the source and are kept apart here.

Experiments:
Compound solubility = assay type: physicochemical; details: for Compound Solubility, 1 μM: solvent at 1 μM; for Compound Solubility, 10 μM: solvent at 10 μM; for Compound Solubility, 100 μM: solvent at 100 μM; for Compound Solubility, 1 mM: solvent at 1 mM; for Compound Solubility, 10 mM: solvent at 10 mM; for Compound Solubility, 16 mg/ml: solvent at 16 mg/ml
DksA [1] = target: T1, DksA (Salmonella typhimurium, UniProt P0A1G5); assay: DksA-dependent livJ in vitro transcription; assay type: biochemical; details: livJ promoter; for IVT: concentration showing activity
T1 sequence (P0A1G5 whole entry): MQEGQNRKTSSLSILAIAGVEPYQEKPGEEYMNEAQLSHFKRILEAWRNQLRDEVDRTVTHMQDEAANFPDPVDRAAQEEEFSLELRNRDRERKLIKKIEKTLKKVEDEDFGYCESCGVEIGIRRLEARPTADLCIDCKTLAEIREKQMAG
Protocol: (§1) To measure the potency of a compound in inhibition of DksA biological function, rpsMtranscripts in vitro was determined by non-radioactive in vitro transcription reactions with qPCR analysis with divergent compounds. Briefly, 5 nM pTIM-rpsMplasmid was mixed with 0.1-100 nM of compounds in 10 μl reaction buffer (40 mM HEPES [pH 7.4], 2 mM MgCl2, 60 mM potassium glutamate, 0.05% NP-40, 200 μM ATP, 200 μM GTP, 200 μM CTP, 200 μM UTP, and 5 nM E. coli RNA polymerase holoenzyme (NEB, Ipswich, MA) with 5 μM DksA. The in vitro transcription was carried out at 37° C. for 10 min, and then terminated at 70° C. for 10 min. To remove template DNA after treated with DNaseI, DNA-free DNA Removal kit (ThermoFisher) was used according to manufacturer's direction. The resulting materials were used as templates to generate cDNA with 100 U MMLV reverse transcriptase (Promega), 0.45 μM gene specific primer, and 20 U RNase inhibitor (Promega). The amount of cDNA synthesized for 1 h at 42° C. was quantified by real-time PCR (qRT-PCR). The copy number of specific transcripts was calculated to the standard curve generated with known gene copy concentrations. The IC50 is the concentration at which the curve passes through the 50% inhibition level. Standard deviation was calculated from 3 independent experiments.
(§2) The compounds were initially tested at 0.1 μM and 1 μM using as a target the promoter of the livJ gene that encodes a transporter of branch-chain amino acids (Table 4).

Salmonella strain 14028s [2] = assay: Growth and survival assay in combination with antibiotics that target DNA replication; assay type: cell-based; details: #21 8 μg/ml, #23 16 μg/ml; EG media, 37° C., 20 hrs
Protocol: Salmonella strain 14028s was grown overnight at 37° C. with shaking in LB broth. Cell density was measured by spectrometer by following OD600. Cells were centrifuged and washed once with EG Minimal Salts Media (57.4 mM K2HPO4, 1.7 mM MgSO4, 9.5 mM Citric acid, 16.7 mM H5NNaPO4, and 0.4% D-Glucose, pH 7.0). The specimens were then resuspended with EG media and adjusted to the final concentration of 1×10^5/ml.
One hundred microliters of the cell dilution were plated onto LB agar plate to verify the starting concentration. Ten 5-ml cell culture tubes were prepared, and the diluted cells were transferred to the culture tubes at 1 ml/tube. The first culture tube was reserved as the control. The remaining nine tubes were divided into 3 groups (3 tubes each), which were treated with Nitrofurazone, 4-Nitroquinoline N-oxide, and Mitomycin C at 8 μM, 8 μM, and 0.75 μM, respectively. Within each group, two of the tubes additionally received compounds #21 or #23 at 8 μg/ml and 16 μg/ml, respectively. All tubes were then incubated with shaking at 37° C. for 20 hrs. Cells were collected, diluted, plated on LB agar plates, and subsequently counted. Survival percentages were calculated using bacteria counts divided by starting concentration.

Salmonella strain 14028s [3] = assay: Minimum inhibitory concentration in EG minimal media; assay type: cell-based, Salmonella Typhimurium; details: for Growth in EG at concentration tested 1 μg/ml / Growth in EG at concentration tested 2 μg/ml / Growth in EG at concentration tested 4 μg/ml / Growth in EG at concentration tested 8 μg/ml / Growth in EG at concentration tested 16 μg/ml: EG minimal media, 37° C.
Protocol: (§3) DksA controls transcription of metabolic and virulence genes, allowing bacteria to both grow in minimum media and cause disease. Inhibition of bacterial growth in EG minimum media was used as an easy and reliable proxy of the DksA-dependent regulation of metabolism.
In a non-limiting example, wild-type Salmonella strain 14028s was grown overnight (18.5 h), and then diluted in EG minimal media to a density of about 10^5 CFU/mL. […] Each test tube was incubated at 37° C. with shaking for 18 h and bacterial growth was evaluated. The MIC value was determined as the lowest concentration of compound that inhibited growth.

Salmonella = assay: Disk diffusion assay; assay type: cell-based; details: among drugs that inhibited DksA function in the in vitro screens
Protocol: Salmonella was grown overnight in LB broth at 37° C. with shaking. The bacterial cultures were diluted by 1:1000 with PBS. 100 μl of the diluted samples were transferred into E-salts glucose agar. The bacteria were spread on the surface of the agar. Two discs (BBL blank paper discs 6 mm) were placed per/plate, and 10 μl of 10 mM or 100 mM stock compound were added to the discs. The plates were incubated at 37° C. overnight. The diameter of inhibition was expressed in mm.

E. coli strain 3110 = assay: Minimum inhibitory concentration in EG minimum media, E. coli; assay type: cell-based; details: Escherichia coli
From the text: as §3

DksA [4] = target: T1, DksA; assay: DksA-dependent activation of hisG in vitro transcription; assay type: biochemical; details: as little as 0.1 μM
Protocol: To measure the potency of a compound in inhibition of DksA biological function, rpsMtranscripts in vitro was determined by non-radioactive in vitro transcription reactions with qPCR analysis with divergent compounds. […] The amount of cDNA synthesized for 1 h at 42° C. was quantified by real-time PCR (qRT-PCR). The copy number of specific transcripts was calculated to the standard curve generated with known gene copy concentrations. […] Standard deviation was calculated from 3 independent experiments.
The compounds obtained in this screen were further analyzed for binding to the acidic pocket at the tip of DksA coiled-coil domain using the computer search program Dock. […] The compounds selected were further refined according to energy minimization as calculated by the CNS program. 23 compounds were obtained from MolPort and they were tested for their ability to interfere with DksA in a high throughput screen that combined in vitro transcription with highly specific and quantitative qRT-PCR. […]

[5] = test system: intracellular Salmonella in J774 macrophage-like cells; assay: Intracellular growth of Salmonella in macrophages; assay type: cell-based; details: for Antimicrobial activity against intracellular Salmonella growing in macrophages: J774 cells, cell culture media containing 10% fetal bovine serum
DksA [6] = target: T1, DksA; assay: DksA-mediated repression of rpsM in vitro transcription (IVT, qRT-PCR); assay type: biochemical
Protocol: as §1
The compounds obtained in this screen were further analyzed for binding to the acidic pocket at the tip of DksA coiled-coil domain using the computer search program Dock. The analysis identified over 400 compounds. A panel of 40 compounds was selected from the top hits based on free energy binding scores. These compounds were investigated using the computer modeling program O. Two additional criteria were applied in order to narrow down the list of candidates: First, the compounds needed to fit deep into the pocket without any clashes; and second, the compounds bound to DksA should have minimal exposed moieties. The compounds selected were further refined according to energy minimization as calculated by the CNS program. 23 compounds were obtained from MolPort and they were tested for their ability to interfere with DksA in a high throughput screen that combined in vitro transcription with highly specific and quantitative qRT-PCR. Five of these compounds, including N-(3,4-dimethoxyphenyl)-1H-1,2,4-triazole-3-carboxamide (1), prevented DksA-mediated repression of rpsM in vitro transcription to some degree. […] Without intending to be limited to any particular theory, the effect that 1 has on DksA-dependent rpsM or hisG gene transcription is potentially due to differences in promoter activity.
as §2

J774 cells = assay: Lactate dehydrogenase (LDH) release from infected host cells; assay type: cell-based; details: 32 μg/ml; 18 h after infection with wild-type or ΔdksA Salmonella; p=0.3
[7] = test system: T2, E. coli RNA polymerase holoenzyme; assay: rpsM in vitro transcription by RNA polymerase itself; assay type: biochemical; details: up to 10 μM
T2 construct: purchased NEB, Ipswich, MA
T2 sequence (P0A7Z4 whole entry): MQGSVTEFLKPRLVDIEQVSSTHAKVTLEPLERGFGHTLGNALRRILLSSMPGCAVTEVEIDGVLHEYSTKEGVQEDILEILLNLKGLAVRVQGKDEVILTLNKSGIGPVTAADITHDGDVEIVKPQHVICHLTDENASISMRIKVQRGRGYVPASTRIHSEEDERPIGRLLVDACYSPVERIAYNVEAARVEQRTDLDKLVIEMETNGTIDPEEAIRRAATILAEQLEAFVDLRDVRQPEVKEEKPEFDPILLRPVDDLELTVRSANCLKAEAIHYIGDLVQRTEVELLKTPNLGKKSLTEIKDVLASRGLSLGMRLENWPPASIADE
T2 sequence (P0A8V2 whole entry, further chain): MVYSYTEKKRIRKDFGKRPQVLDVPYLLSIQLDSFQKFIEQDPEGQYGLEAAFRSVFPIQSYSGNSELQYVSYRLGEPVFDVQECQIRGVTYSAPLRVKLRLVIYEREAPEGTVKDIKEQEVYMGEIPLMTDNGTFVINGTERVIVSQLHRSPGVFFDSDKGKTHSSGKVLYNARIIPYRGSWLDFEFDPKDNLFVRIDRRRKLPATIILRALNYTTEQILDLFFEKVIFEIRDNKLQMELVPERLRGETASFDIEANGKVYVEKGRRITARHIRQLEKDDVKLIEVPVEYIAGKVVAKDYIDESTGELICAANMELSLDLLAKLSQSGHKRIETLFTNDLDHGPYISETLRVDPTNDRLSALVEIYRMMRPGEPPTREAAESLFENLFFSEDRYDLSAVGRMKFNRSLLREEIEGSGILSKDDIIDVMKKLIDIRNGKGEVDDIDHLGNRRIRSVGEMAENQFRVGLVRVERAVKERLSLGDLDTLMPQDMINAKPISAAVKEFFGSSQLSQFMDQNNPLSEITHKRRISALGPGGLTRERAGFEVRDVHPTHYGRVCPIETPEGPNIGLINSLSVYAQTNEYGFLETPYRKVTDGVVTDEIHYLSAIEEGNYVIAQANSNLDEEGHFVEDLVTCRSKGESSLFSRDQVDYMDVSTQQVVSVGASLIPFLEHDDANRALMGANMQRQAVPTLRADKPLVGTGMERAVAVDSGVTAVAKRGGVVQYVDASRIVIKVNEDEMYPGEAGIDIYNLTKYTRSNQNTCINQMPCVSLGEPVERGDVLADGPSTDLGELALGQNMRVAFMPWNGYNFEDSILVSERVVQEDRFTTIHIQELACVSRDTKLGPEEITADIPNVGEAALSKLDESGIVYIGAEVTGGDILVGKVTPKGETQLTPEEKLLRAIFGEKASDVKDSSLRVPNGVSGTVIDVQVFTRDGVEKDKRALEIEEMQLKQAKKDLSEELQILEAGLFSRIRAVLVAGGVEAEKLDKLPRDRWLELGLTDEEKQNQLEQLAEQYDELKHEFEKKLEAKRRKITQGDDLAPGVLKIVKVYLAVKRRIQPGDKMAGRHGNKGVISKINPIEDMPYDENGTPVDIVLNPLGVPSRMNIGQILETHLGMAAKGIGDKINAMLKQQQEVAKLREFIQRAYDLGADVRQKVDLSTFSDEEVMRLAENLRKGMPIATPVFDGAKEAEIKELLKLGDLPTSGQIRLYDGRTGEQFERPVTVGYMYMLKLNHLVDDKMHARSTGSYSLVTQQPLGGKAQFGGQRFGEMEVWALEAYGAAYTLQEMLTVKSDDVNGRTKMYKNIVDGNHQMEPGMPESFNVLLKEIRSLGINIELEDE
T2 sequence (P0A8T7 whole entry, further chain): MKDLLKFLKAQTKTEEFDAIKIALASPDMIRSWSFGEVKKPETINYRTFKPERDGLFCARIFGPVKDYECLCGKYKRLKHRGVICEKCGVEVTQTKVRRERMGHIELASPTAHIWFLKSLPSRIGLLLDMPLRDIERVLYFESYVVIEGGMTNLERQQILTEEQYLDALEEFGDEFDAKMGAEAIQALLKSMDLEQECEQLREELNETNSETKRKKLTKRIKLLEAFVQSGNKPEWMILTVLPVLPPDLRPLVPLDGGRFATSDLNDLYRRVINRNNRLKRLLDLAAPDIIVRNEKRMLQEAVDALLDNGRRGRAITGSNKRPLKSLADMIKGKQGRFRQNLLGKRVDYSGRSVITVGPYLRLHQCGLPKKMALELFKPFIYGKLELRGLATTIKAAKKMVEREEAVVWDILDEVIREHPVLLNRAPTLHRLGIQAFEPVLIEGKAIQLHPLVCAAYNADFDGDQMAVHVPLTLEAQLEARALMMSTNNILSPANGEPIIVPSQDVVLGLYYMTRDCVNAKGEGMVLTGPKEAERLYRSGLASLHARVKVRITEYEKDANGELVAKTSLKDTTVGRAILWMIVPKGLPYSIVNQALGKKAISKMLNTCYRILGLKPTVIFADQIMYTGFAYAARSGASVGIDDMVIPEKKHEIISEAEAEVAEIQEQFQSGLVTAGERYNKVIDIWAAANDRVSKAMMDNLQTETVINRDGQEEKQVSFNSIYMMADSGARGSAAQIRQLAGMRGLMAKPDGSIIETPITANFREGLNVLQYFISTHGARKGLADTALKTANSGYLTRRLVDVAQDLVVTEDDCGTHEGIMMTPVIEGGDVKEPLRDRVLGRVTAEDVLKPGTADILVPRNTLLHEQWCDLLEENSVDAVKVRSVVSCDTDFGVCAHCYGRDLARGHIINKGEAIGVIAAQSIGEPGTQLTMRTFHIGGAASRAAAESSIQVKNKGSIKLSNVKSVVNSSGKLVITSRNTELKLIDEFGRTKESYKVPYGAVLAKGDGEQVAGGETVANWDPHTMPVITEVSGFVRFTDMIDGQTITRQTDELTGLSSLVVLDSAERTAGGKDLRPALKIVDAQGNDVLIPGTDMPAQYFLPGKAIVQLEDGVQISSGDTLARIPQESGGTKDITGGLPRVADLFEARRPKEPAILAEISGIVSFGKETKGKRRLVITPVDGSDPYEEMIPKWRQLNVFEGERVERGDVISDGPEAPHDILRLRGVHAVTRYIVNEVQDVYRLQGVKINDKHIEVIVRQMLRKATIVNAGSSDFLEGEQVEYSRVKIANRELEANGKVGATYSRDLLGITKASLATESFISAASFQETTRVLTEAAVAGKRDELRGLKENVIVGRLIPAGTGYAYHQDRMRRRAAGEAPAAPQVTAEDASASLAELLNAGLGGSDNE
T2 sequence (P0A800 whole entry, further chain): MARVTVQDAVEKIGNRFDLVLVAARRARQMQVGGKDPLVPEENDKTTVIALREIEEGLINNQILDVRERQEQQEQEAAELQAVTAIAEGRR
T2 sequence (P00579 whole entry, further chain): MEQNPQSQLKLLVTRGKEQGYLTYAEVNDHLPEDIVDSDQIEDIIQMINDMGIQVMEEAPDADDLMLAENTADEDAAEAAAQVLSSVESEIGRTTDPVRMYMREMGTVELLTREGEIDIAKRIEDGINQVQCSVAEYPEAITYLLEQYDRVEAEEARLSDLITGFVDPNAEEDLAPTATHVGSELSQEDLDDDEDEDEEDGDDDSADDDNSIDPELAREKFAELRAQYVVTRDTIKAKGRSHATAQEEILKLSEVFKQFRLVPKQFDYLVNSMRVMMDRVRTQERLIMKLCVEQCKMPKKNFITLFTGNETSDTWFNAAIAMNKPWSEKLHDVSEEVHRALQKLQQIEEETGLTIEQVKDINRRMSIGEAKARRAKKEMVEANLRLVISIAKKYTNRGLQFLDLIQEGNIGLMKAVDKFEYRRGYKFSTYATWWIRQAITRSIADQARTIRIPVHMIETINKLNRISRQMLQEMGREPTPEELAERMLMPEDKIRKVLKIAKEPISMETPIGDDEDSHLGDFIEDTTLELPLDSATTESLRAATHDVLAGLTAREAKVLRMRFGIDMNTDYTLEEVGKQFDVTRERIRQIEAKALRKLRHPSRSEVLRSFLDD
Protocol: as §1, with “Briefly, 5 nM pTIM-rpsMplasmid was mixed with 0.1-100 nM of compounds in 10 μl reaction buffer (40 mM HEPES [pH 7.4], 2 mM MgCl2, 60 mM potassium glutamate, 0.05% NP-40, 200 μM ATP, 200 μM GTP, 200 μM CTP, 200 μM UTP, and 5 nM E. coli RNA polymerase holoenzyme (NEB, Ipswich, MA) with 5 μM DksA.” left out
The compounds obtained in this screen were further analyzed for binding to the acidic pocket at the tip of DksA coiled-coil domain using the computer search program Dock. The analysis identified over 400 compounds. […] The compounds selected were further refined according to energy minimization as calculated by the CNS program. […]

SPI2 effector sifA = assay: Intracellular expression of SPI2 effector sifA in infected macrophages; assay type: cell-based; details: Salmonella-infected macrophages, 16 μg/ml

## COc1ccc(CCNC(=O)c2nc[nH]n2)cc1 [Compound 21, N-(4-methoxyphenethyl)-1H-1,2,4-triazole-3-carboxamide]
Compound solubility
  Compound Solubility, 1 μM: water
  Compound Solubility, 10 μM: water
  Compound Solubility, 100 μM: water
  Compound Solubility, 1 mM: water
  Compound Solubility, 10 mM: water
  Compound Solubility, 16 mg/ml: DMSO
DksA [1]
  In vitro transcription assay result, 0.1 μM: no induction
  In vitro transcription assay result, 1 μM: no induction
  IVT: 0.1 µM
Salmonella strain 14028s [2]
  Anti-Salmonella activity of 4-nitroquinoline-N-oxide, nitrofurazone and mytomycin in combination: enhanced the anti-Salmonella activity
Salmonella strain 14028s [3]; 18 h
  Growth in EG at concentration tested 1 μg/ml: +
  Growth in EG at concentration tested 2 μg/ml: +
  Growth in EG at concentration tested 4 μg/ml: +
  Growth in EG at concentration tested 8 μg/ml: +
  Growth in EG at concentration tested 16 μg/ml: +
Salmonella strain 14028s [3]; Salmonella, 14028S, 18 h
  MIC: 32 µg/mL (≈ 130 µM)

## COc1ccc(NC(=O)c2nc[nH]n2)cc1OC [Compound 1, N-(3,4-dimethoxyphenyl)-1H-1,2,4-triazole-3-carboxamide]
Salmonella
  Anti-Salmonella activity in disk diffusion assays: greatest anti-Salmonella activity
Compound solubility
  Compound Solubility, 1 μM: water
  Compound Solubility, 10 μM: water
  Compound Solubility, 100 μM: water
  Compound Solubility, 1 mM: water
  Compound Solubility, 10 mM: water
  Compound Solubility, 16 mg/ml: DMSO
DksA [1]
  In vitro transcription assay result, 0.1 μM: no change
  In vitro transcription assay result, 1 μM: good repression
  IVT: 1 µM
E. coli strain 3110
  MIC: 32 µg/mL
E. coli strain 3110; converted
  MIC: 129 µM
DksA [4]
  Inhibition of DksA-dependent activation of hisG in vitro transcription: completely inhibited
[5]
  Antimicrobial activity against intracellular Salmonella growing in macrophages: potent antimicrobial activity
[5]; listed as 916
  Antimicrobial activity against intracellular Salmonella growing in macrophages: inhibits intracellular growth
[5]; ΔdksA Salmonella, off-target control
  Intracellular growth of ΔdksA Salmonella: unaffected
DksA [6]; 1 μM
  Inhibition of DksA-mediated repression of rpsM in vitro transcription: completely inhibited
DksA [6]; qualitative, listed as 916
  Activity against DksA-mediated repression of rpsM in vitro transcription: excellent activity; also recorded: best in vitro efficacy
J774 cells
  Lactate dehydrogenase (LDH) released from J774 cells: did not change
[7]
  Effect on rpsM in vitro transcription by the RNA polymerase itself: did not affect
SPI2 effector sifA
  Intracellular expression of the SPI2 effector sifA: repressed transcription
SPI2 effector sifA; listed as 916
  Intracellular expression of the SPI2 effector sifA: inhibits the intracellular expression
Salmonella strain 14028s [3]; 18 h
  Growth in EG at concentration tested 1 μg/ml: +
  Growth in EG at concentration tested 2 μg/ml: +
  Growth in EG at concentration tested 4 μg/ml: +
  Growth in EG at concentration tested 8 μg/ml: +
  Growth in EG at concentration tested 16 μg/ml: +
Salmonella strain 14028s [3]; Salmonella, 14028S, 18 h
  MIC: 32 µg/mL (≈ 129 µM)
Salmonella strain 14028s [3]; read-out: Minimum inhibitory concentration
  MIC: 32 µg/mL and 129 µM
